According to ChEMBL document CHEMBL1140916, “Structure-activity relationship of new anti-hepatitis C virus agents: heterobicycle-coumarin conjugates” (J Med Chem, 2009):

How the values were obtained:
[1] = Selectivity index, ratio of CC50 for human Huh 5-2 cells to EC50 for HCV
[2] = Cytotoxicity against HCV infected human Huh5-2 cells assessed as microscopically detectable alteration in cell morphology after 3 days; format: cell-based, Huh-5-2; conditions: HCV infected Huh5-2 cells
Hepatitis C virus = test: Antiviral activity against HCV infected in human Huh5-2 cells assessed as reduction of virus-induced cytopathogenicity after 4 days; format: functional, organism-based, Hepacivirus hominis; conditions: Huh-5-2, 96 h

| Structure (SMILES) | Ratio CC50/EC50 [1] | CC50 at 72 h [2] | EC50 (Hepatitis C virus) |
| --- | --- | --- | --- |
| COc1cccc2cc(CSc3nc4ccccc4n3[C@H]3C[C@@H](OC(C)=O)[C@H](OC(C)=O)[C@@H](COC(C)=O)O3)c(=O)oc12 | 2.2 | 26 µM | 12 µM |
| CC(=O)OC[C@H]1O[C@@H](n2c(SCc3ccc([N+](=O)[O-])cc3)nc3ccccc32)[C@H](OC(C)=O)[C@@H](OC(C)=O)[C@@H]1OC(C)=O | 1.3 | 83 µM | 63 µM |
| O=c1oc2ccccc2cc1CSc1nc2cncnc2[nH]1 | 54 | 109 µM | 2 µM |
| O=c1oc2ccc(Br)cc2cc1CSc1nc2cccnc2[nH]1 | 19 | 128 µM | 6.8 µM |
| Cc1ccc2[nH]c(SCc3ccncc3)nc2c1 | 1 | 199 µM | 199 µM |
| CC(=O)OC[C@H]1O[C@@H](n2c(=S)[nH]c3ccccc32)[C@H](OC(C)=O)[C@@H](OC(C)=O)[C@@H]1OC(C)=O | 1 | 104 µM | 104 µM |
| O=c1oc2ccccc2cc1CSc1nc2cccnc2[nH]1 | 1.6 | 95 µM | 59 µM |
| c1ccc2cc(CSc3nc4ccccc4[nH]3)ccc2c1 | 0.73 | 56 µM | 76 µM |
| Fc1ccc2[nH]c(SCc3ccccc3)nc2c1 | 1 | 197 µM | 197 µM |
| Clc1cc2nc(SCc3ccncc3)[nH]c2cc1Cl | 1.1 | 107 µM | 100 µM |
| O=c1oc2ccccc2cc1CSc1nc2ccccc2[nH]1 | 3.4 | 90 µM | 27 µM |
| COc1cccc2cc(CSc3nc4ccccc4[nH]3)c(=O)oc12 | 2.8 | 27 µM | 10 µM |
| O=c1oc2ccccc2cc1CSc1nc2ccccc2s1 | 1.9 | 153 µM | 80 µM |
| O=c1oc2ccc(Br)cc2cc1CSc1nc2ccccc2o1 | 11 | 131 µM | 12 µM |
| COc1cccc2cc(CSc3nc4ccccc4s3)c(=O)oc12 | 1.4 | 40 µM | 29 µM |
| O=c1oc2ccccc2cc1CSc1nc2ccccc2o1 | 3.9 | 45 µM | 12 µM |
| COc1cccc2cc(CSc3nc4cncnc4[nH]3)c(=O)oc12 | 4.8 | 94 µM | 20 µM |
| CC(=O)OC[C@H]1O[C@@H](n2c(SCc3cc4cc(Br)ccc4oc3=O)nc3ccccc32)C[C@@H](OC(C)=O)[C@@H]1OC(C)=O | 4 | 16 µM | 4.1 µM |
| CC(=O)OC[C@H]1O[C@@H](n2c(SCc3cc4cc(Br)ccc4oc3=O)nc3cc(Cl)c(Cl)cc32)C[C@@H](OC(C)=O)[C@@H]1OC(C)=O | 6.4 | 11 µM | 1.8 µM |
| COc1cccc2cc(CSc3nc4cccnc4[nH]3)c(=O)oc12 | 2.8 | 30 µM | 11 µM |
| O=c1oc2ccccc2cc1CSc1nc2cc(Cl)c(Cl)cc2[nH]1 | 4.9 | 74 µM | 15 µM |
| COc1cccc2cc(CSc3nc4ccccc4o3)c(=O)oc12 | 0.96 | 18 µM | 19 µM |
| Fc1ccc2[nH]c(SCc3ccncc3)nc2c1 | 1.1 | 196 µM | 184 µM |
